“And” between values parts separate entries of the source, which are not always exact repeats. Equal values may be shown once.
How the values were obtained:
[1] = tested on: U251; test: CCK-8 cell viability assay, U251; format: cell-based; settings: Homo sapiens, U-251, 72 h, CCK-8, 72 h, mean ± SD of three independent experiments
Description: (§1) The U87MG cell line (catalogue iCell-h224) and U251MG cell line (catalogue iCell-h219) were purchased from iCell Bioscience Inc (Shanghai) cell bank. T98G cell line was obtained from Yining Zhang’s group. All cells were cultured in DMEM supplemented with 10% (v/v) FBS and penicillin-streptomycin in a humidified incubator at 37 °C under 5% CO2. The different compounds were dissolved in DMSO at the concentration of 10 mM and diluted in serum-free medium. The GBM cells were seeded into 96-well microplates at the density of 6000 cells/well and incubated for 24 h. Fresh media supplemented with different concentrations of the compounds were added, and the cells were cultured for 72 h. The CCK-8 reagent (TargetMol, C0005) was added to each well and the cells were incubated for 4 h at 37 °C. […] the absorbance was measured at […] using a microplate reader (Genios Tecan). An untreated control group was included and its viability was set as 100%. IC50 value of the two probes was calculated using GraphPad Prism 5.0.

[2] = tested on: apoptosis-related and autophagy-related proteins in U251 cells; test: Western blotting of apoptosis-related and autophagy-related proteins; format: cell-based; settings: immunoblot
Description: The protein content in the lysates was measured using a BCA protein assay kit, and 20 μg protein per sample was separated by SDS-PAGE and transferred to PVDF membranes (Merck Millipore, Burlington, MA, USA). After blocking with 5% skim milk in Tris buffered saline-Tween (TBS-T) at room temperature for 2h, the blots were incubated overnight with the following primary antibodies at 4 °C: mouse anti-GAPDH (ab8245, 1:10000), rabbit anti-Bax (ab32503, 1:5000), anti-Bcl-2 (ab32124, 1:1000), anti-caspase 3 (ab32351, 1:5000), anti-cleaved caspase 3 (ab32042, 1:500), anti-cleaved PARP-1 (ab32561, 1:1000), anti-LC3B (ab192890, 1:2000), anti-p62 (ab109012, 1:10000), anti-PARP-1 (ab32138, 1:10000). Following three washes with TBS-T, the membranes were incubated with corresponding horseradish peroxidase-conjugated secondary antibodies (1:10000) at room temperature for 90 min, and washed thrice with TBS-T. The bands were visualised using the Minichem@610 Chemiluminescence imager (SAGCEREATION, Beijing) on the chemiluminescence channel.

[3] = biological target: T1, CDK2 (Homo sapiens, UniProt P24941); test: Drug affinity responsive target stability (DARTS) assay; format: binding; settings: U251 lysate, C5 50 and 100 μM, pronase 30 min, versus DMSO
T1 construct: endogenous in cells; host or cells: U251 cells (lysate)
Description: U251 cells were plated in 10 cm dishes. After overnight, the cells were washed by precooled PBS, and lysed by NP-40 lysis buffer for 30 min. Next, lysates were centrifuged at 13000 rpm for 15 min at 4 °C, and protein concentration was determined using a BCA protein assay kit (Solarbio, PC0020). The supernatants were divided into four 50 μL aliquots and incubated with DMSO or compound C5 (50 and100μM) for 30 min at room temperature. Then, the 5 μL of Pronase (The method of preparing the stock solution is 1 μg of Pronase in 200 μg of lysate, the effect concentration which is diluted by ultrapure water to 200X/400X/600X), and the reaction was stopped by 5× loading buffer. Protein samples were boiled and analysed by using Western blot.

[4] = tested on: U251 multicellular tumour spheroids; test: 3D spheroid assay (MCTSs, calcein-AM/PI); format: cell-based; settings: C5 24 h, dose-dependent
Description: Malignant glioblastoma tumour cells U251 were seeded in cell-repellent 96-well U-bottom plates (Sbio™), and cultured for 72 h to allow spheroid formation. […] Spheroids were stained with PI and Calcein-AM, and observed under a fluorescence microscope.

[5] = tested on: U87; test: CCK-8 cell viability assay, U87; format: cell-based; settings: Homo sapiens, U-87 MG, 72 h, CCK-8, 72 h, mean ± SD of three independent experiments
Description: as §1

[6] = tested on: LO2; test: CCK-8 cytotoxicity, normal human cell line LO2; format: cell-based; settings: L02, mean ± SD of three independent experiments
[7] = tested on: T98G; test: CCK-8 cell viability assay, T98G; format: cell-based; settings: Homo sapiens, T98G, 72 h, CCK-8, 72 h, mean ± SD of three independent experiments
Description: as §1

[8] = biological target: T1, CDK2; test: Cellular thermal shift assay (CETSA); format: binding; settings: U251, C5 50 and 100 µM, 40–70 °C, compared to control group
Description: U251 cells in logarithmic growth were harvested and lysed with protease inhibitors and phosphorylase inhibitors, followed by ultrasonic disruption and ice extraction for 1 h. After that, the lysate was divided into three parts evenly and incubated with DMSO, 50 µM of C5, and 100 µM of C5 for 1 h at room temperature. Subsequently, samples were heated in the PCR machine for 10 min in indicated temperature gradients (40–70 °C), respectively. Finally, samples were centrifuged at 14,000 × g for 30 min at 4 °C to remove aggregates, and the resulting supernatant was analysed with western blotting.

[9] = tested on: GBM cell lines (U87, T98G, and U251); test: CCK-8 anti-proliferation, three GBM cell lines taken together; format: cell-based; settings: read-out: IC50 values against all three GBM cell lines
Description: as §1

[10] = tested on: U251 cells; test: Mitochondrial membrane potential (JC-1); format: cell-based; settings: U251, C5 2.5, 5, 10 μM, 24 h
Description: U251 cells were seeded in 6-well microplates at the density of 1.5 × 10^5 cells/well and cultured overnight. Fresh medium containing different doses of C5 (0, 2.5, 5, and 10 μM) was added, and the cells were cultured for 24 h. The cells were stained using the JC-1 kit (Sigma-Aldrich, USA) according to the manufacturer’s instructions and observed by fluorescence microscopy. The changes in the ratio of the red and green fluorescence intensities were calculated to evaluate MMP.

[11] = tested on: U251 cells; test: Intracellular ROS by flow cytometry (DCFH-DA); format: cell-based; settings: U251, 5 μM C5, DCFH-DA
Description: (§2) U251 (1 × 10^5 cells/well) in logarithmic growth phase were transferred into 6-well microplates and cultured for 12 h. Therefore, U251 cells were treated with C5 (0, 2.5, 5, and 10 μM) for 24 h. Annexin V-FITC/PI staining kit (Yeasen, Shanghai, China) was used to detect cell apoptosis. The cell cycle distribution was analysed by staining with a cell cycle analysis kit. Intracellular ROS levels were also detected using a ROS assay kit (Yeasen, Shanghai, China). All assays were performed as per the manufacturer’s instructions, and the stained cells were analysed by flow cytometry (Beckman Coulter, Miami, FL) to quantify apoptosis rates, cell cycle distribution, and ROS levels as appropriate.

[12] = tested on: U251 cells; test: Cell cycle distribution by flow cytometry; format: cell-based; settings: U251, C5 2.5, 5, 10 μM, 48 h
Description: as §2, with “Therefore, U251 cells were treated with C5 (0, 2.5, 5, and 10 μM) for 24 h.” left out

[13] = tested on: U251 cells; test: Transwell invasion experiment (Matrigel); format: cell-based; settings: U251, C5 2.5, 5, 10 µM, 24 h, dose-dependent
Description: Matrigel-coated transwell chambers (24-well; 8-μm pore size, Corning, New York, NY, USA) were used to evaluate the invasion capability of GBM cells. The U251 cells incubated with different doses of C5 (0, 2.5, 5, and 10 μM) for 24 h were seeded on Matrigel-coated transwell chambers at the density of 2 × 10^4/well in a serum-free medium. After culturing for 24 h, the cells that invaded through Matrigel to the lower surface of the membrane were fixed with […] and stained with 0.1% crystal violet. The cells were counted under an inverted microscope in at least 5 random fields per well.

[14] = tested on: U251 cells; test: Annexin V-FITC/PI apoptosis flow cytometry; format: cell-based; settings: U251, C5 10 μM, 48 h
Description: as §2, with “Therefore, U251 cells were treated with C5 (0, 2.5, 5, and 10 μM) for 24 h.” left out

[15] = U251, C5 treatment 24 h, concentration-dependent

- IC50 [1]: 3.12 ± 0.45 µM
- CDK2 stability to pronase digestion (DARTS) [3]: enhanced stability
- IC50 [5]: 3.98 ± 0.34 µM
- thermal stability of CDK2 (CETSA) [8]: substantially increased
- IC50 [9]: 3.12 to 4.25 µM and < 5 µM
SMILES: CN1C(=O)C(=Cc2ccc(O)cc2)SC1=NN=CC1=CCC2CC1C2(C)C (stereo not shown) [C5, 2-(((6,6-Dimethylbicyclo[3.1.1]hept-2-en-2-yl)methylene)hydrazineylidene)-5–(4-hydroxybenzylidene)-3-methylthiazolidin-4-one]
- Bax expression ([2]; U251, C5 treatment 24 h): upregulation
- Bcl-2 expression ([2]; U251, C5 treatment 24 h): dose-dependent downregulation
- PARP cleavage [2, 15]: enhanced
- caspase-3 activation [2, 15]: enhanced
- LC3B-II expression ([2]; U251, C5 treatment): significantly enhanced
- P62 expression ([2]; U251, C5 treatment): significantly enhanced
- viability of U251 cells in a 3D model [4]: decreased
- IC50 [6]: 43.2 ± 0.21 µM
- IC50 [7]: 4.25 ± 0.38 µM
- mitochondrial membrane potential, JC-1 fluorescence [10]: dose-dependent decrease in red fluorescence
- intracellular ROS levels [11]: significantly increased
- cell cycle distribution [12]: decrease in the G2/M population, with a concomitant increase in the S phase population
- number of viable cells that invaded through the Matrigel [13]: significantly decreased
- apoptosis rate [14]: 48.56%
